Target: human P2X7 receptor (Homo sapiens (Human), UniProt Q99572)
Experiment: Pore permeation assay (YO PRO dye uptake)
Format: cell-based
Details: HEK293 transfected with human P2X7 receptor, BzATP 10 uM, read-out: hP2X7 IC50
Method: Agonist-induced pore formation was determined by measuring cellular uptake of YO PRO fluorescence dye in HEK293 transfected with human P2X7 receptor. A HEK293 cell over expressing human P2X7 was harvested using HQTase reagent to detach the cells from T75 cm flask. The harvested cells are centrifuged @ 1200 rpm for 5 min at room temperature. The viability of cells was determined by Trypan blue dye and the cells are plated @ 10,000 cell/well in 50 ul volume in a 384W BD Poly lysine coated plate and incubated overnight at 37 C. […] The plate was centrifuged at 1000 rpm for 5 seconds and incubated at room temperature for 30 minutes. The uptake of YO PRO dye into the cells was measured using Envision Fluorescence plate reader instrument (Perkin Elmer).

Sequence of human P2X7 receptor (Q99572 whole entry): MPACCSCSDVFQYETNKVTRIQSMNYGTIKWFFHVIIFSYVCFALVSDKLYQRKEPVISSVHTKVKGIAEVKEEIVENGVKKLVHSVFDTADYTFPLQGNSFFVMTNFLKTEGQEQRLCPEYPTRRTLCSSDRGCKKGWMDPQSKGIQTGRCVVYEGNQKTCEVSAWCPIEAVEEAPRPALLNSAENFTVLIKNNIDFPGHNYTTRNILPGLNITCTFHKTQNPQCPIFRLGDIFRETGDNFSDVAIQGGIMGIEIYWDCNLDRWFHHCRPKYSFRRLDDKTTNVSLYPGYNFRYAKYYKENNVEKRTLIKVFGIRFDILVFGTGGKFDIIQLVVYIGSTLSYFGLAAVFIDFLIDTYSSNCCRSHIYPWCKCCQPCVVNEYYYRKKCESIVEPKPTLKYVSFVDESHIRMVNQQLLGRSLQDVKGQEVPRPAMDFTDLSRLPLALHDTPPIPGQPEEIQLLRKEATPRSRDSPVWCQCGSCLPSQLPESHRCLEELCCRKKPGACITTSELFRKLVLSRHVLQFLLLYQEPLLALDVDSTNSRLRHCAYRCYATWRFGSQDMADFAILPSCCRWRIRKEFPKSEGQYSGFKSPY

Row | Compound | IC50 [µM]
1 | CC(O)(CNC(=O)c1cn(C2CCOC2)c2cccc(Cl)c12)C1CCCC1 (centres unmarked) [Compound 102, 4-Chloro-1-(tetrahydro-furan-3-yl)-1H-indole-3-carboxylic acid (2-cyclopentyl-2-hydroxy-propyl)-amide] | > 1
2 | 4-Chloro-1-oxetan-3-yl-1H-indole-3-carboxylic acid (2,2-difluoro-ethyl)-amide [Compound 76] | > 1
